According to patent US8555897B2, “Method of making a cigarette and method of reducing cytotoxicity in tobacco smoke” (priority 2005, dated 2013):
Like-named read-outs stand apart in the source and are kept apart here.

Tests used:
[1] = TPM cytotoxicity of cigarette smoke
[2] = Gas vapor phase (GVP) toxicity
Source text: Additionally, a control filler was sprayed with 20 g of deionized H2O. Next, the sprayed fillers were dried, conditioned and processed into handmade cigarettes.

[3] = TPM mutagenicity of cigarette smoke
[4] = Table 1, filler additive 10.8% NH4OAc or 6.3% Co(NH3)6Cl3, vs water-sprayed control
[5] = Table 4, NH4OAc alone: filler treatment scaled up to 300 g/batch

CC(=O)[O-].CC(=O)[O-].CC(=O)[O-].N.N.N.N.N.N.[Co+3] [Co(NH3)6(OAc)3, hexammine cobalt (III) acetate]
Cytotoxicity, change (TPM) [1]: −24% | TPM and GVP toxicity of cigarette smoke (in words) [1]: significant reduction | GVP Toxicity, change ([2]; Table 5, Co 1.3%, NH3 2.4%, glycerin 10% where present, vs water-sprayed control): −42%

N.N.N.N.N.N.[Cl-].[Cl-].[Cl-].[Co+3] [Co(NH3)6Cl3, hexammine cobalt (III) chloride]
Cytotoxicity, change (MS TPM) [1]: −34%

CC(=O)O.N [NH4OAc, ammonium acetate]
Cytotoxicity, change (MS TPM) [1, 4]: −33% | Cytotoxicity, change (TPM) [1, 5]: −26% | Mutagenicity, change (MS TPM) [3, 4]: −11% | Mutagenicity, change (TPM) [3, 5]: 9% | reduction in GVP toxicity ([2]; Table 3): 29% | GVP Toxicity, change ([2]; Table 3, change from control): −29%
